# In publication PMC9661477, “New Dual P-Glycoprotein (P-gp) and Human Carbonic Anhydrase XII (hCA XII) Inhibitors as Multidrug Resistance (MDR) Reversers in Cancer Cells” (Journal of Medicinal Chemistry, 2022):
# Assays:
# [1] = stability in human plasma, LC-MS/MS; format: in vitro ADME; conditions: reference compound, read-out: half-life (t1/2)
# Protocol: The chemical stability of all of these diester derivatives was evaluated in phosphate-buffered solution (PBS) and human plasma samples. The stability analyses were performed by liquid chromatography coupled with a triple quadrupole mass spectrometry system (LC-MS/MS), operating in multiple reaction monitoring (MRM) mode. The LC-MS/MS instrument and parameters used are reported in the Supporting Information.
# In these assays, we monitored the variation of our diester molecules’ concentration at four different incubation times both in PBS and in human plasma samples to evaluate their susceptibility toward spontaneous or enzymatic hydrolysis, respectively. By plotting any variation of analyte concentration vs the incubation time, the corresponding degradation profiles in both the tested matrices were obtained. […] Therefore, by plotting the natural logarithm of the quantitative data versus the incubation time, a linear function can be used, and its slope represents the degradation rate constant (k). Accordingly, with the linear function, the half-life (t1/2) of each tested compound can be calculated as follows [drawing 1] […]
# Each set of samples was incubated in triplicate at four different times, 0, 30, 60, and 120 min at 37 °C. […] The obtained sample solutions were analyzed by LC-MS/MS methods described in the Supporting Information.
# P-gp KO A549/DOX cells = experiment: cells; conditions: Homo sapiens, A549, read-out: IC50 of doxorubicin
# HT29 cells [2] = experiment: kinetic parameters of doxorubicin efflux in HT29 cells; format: cell-based, human; conditions: doxorubicin alone
# Protocol: (§1) Cells were incubated for 3 h with 5 μM doxorubicin, alone or with the selected compounds, washed with PBS, trypsinized, centrifuged at 13 000g for 5 min, and resuspended in 0.5 mL of 1/1 solution ethanol/0.3 N HCl. […] To calculate the kinetic parameters, cells were incubated for 20 min with increasing (0–100 μM) concentrations of doxorubicin, alone or with the indicated compounds, then analyzed for the intracellular concentration of doxorubicin. […] The difference in the doxorubicin concentration between the two series, expressed as nmol doxorubicin extruded/min/mg cell proteins, was plotted versus the initial drug concentration.[69] Values were fitted to the Michaelis–Menten equation to calculate Vmax and Km, using the Enzfitter software (Biosoft Corporation, Cambridge, United Kingdom).
# [3] = tested on: hCA XII KO HT29/DOX cells; experiment: kinetic parameters of doxorubicin efflux in hCA XII KO HT29/DOX cells; format: cell-based, human; conditions: doxorubicin alone
# Protocol: as §1
# [4] = tested on: hCA XII KO A549/DOX cells; experiment: doxorubicin cytotoxicity enhancement assay in hCA XII KO A549/DOX cells; format: cell-based; conditions: Homo sapiens
# [5] = tested on: hCA XII KO HT29/DOX cells; experiment: doxorubicin cytotoxicity enhancement assay in hCA XII KO HT29/DOX cells; format: cell-based; conditions: Homo sapiens, HT-29
# P-gp KO HT29/DOX cells = experiment: cells; conditions: Homo sapiens, HT-29, read-out: IC50 of doxorubicin
# HT29/DOX cells [6] = experiment: kinetic parameters of doxorubicin efflux in HT29/DOX cells; format: cell-based, human; conditions: doxorubicin alone
# Protocol: as §1
# HT29 cells [7] = experiment: doxorubicin cytotoxicity in HT29 cells; format: cell-based; conditions: Homo sapiens, HT-29, 72 h, MTT
# Protocol: Human chemosensitive colon cancer HT29 cells, lung cancer A549 cells, not-transformed human colon epithelial EpiCoC cells, and lung epithelial BEAS-2B cells were purchased from ATCC (Manassas, VA). […] Cells were maintained in media supplemented with 10% v/v fetal bovine serum, 1% v/v penicillin–streptomycin, and 1% v/v L-glutamine. […] Knockout efficacy was evaluated by immunoblotting, as reported below.
# HT29/DOX cells [8] = experiment: cells; conditions: Homo sapiens, HT-29, 72 h, read-out: IC50 of doxorubicin
# A549/DOX cells [9] = experiment: cells; conditions: Homo sapiens, A549, 72 h, read-out: IC50 of doxorubicin
# [10] = tested on: hCA XII KO A549/DOX cells; experiment: kinetic parameters of doxorubicin efflux in hCA XII KO A549/DOX cells; format: cell-based, human; conditions: doxorubicin alone
# Protocol: as §1
# A549/DOX cells [11] = experiment: kinetic parameters of doxorubicin efflux in A549/DOX cells; format: cell-based, human; conditions: doxorubicin alone
# Protocol: as §1
# A549 cells = experiment: kinetic parameters of doxorubicin efflux in A549 cells; format: cell-based, human; conditions: doxorubicin alone
# Protocol: as §1
half-life at 1 μM [1] [h],IC50 (P-gp KO A549/DOX cells) [nM],IC50 (P-gp KO HT29/DOX cells) [nM],IC50 (HT29/DOX cells [8]) [nM],IC50 (A549/DOX cells [9]) [nM],SMILES,Km (HT29 cells [2]) [µM],Vmax of doxorubicin efflux (HT29 cells [2]) [µmol/min],Km [3] [µM],Vmax of doxorubicin efflux [3] [µmol/min],IC50 [4] [nM],IC50 [5] [nM],Km (HT29/DOX cells [6]) [µM],Vmax of doxorubicin efflux (HT29/DOX cells [6]) [µmol/min],IC50 (HT29 cells [7]) [nM],Km [10] [µM],Vmax of doxorubicin efflux [10] [µmol/min],Km (A549/DOX cells [11]) [µM],Vmax of doxorubicin efflux (A549/DOX cells [11]) [µmol/min],Km (A549 cells) [µM],Vmax of doxorubicin efflux (A549 cells) [µmol/min]
≤ 2,,,,,"CCOC(=O)C(C)c1cccc(C(=O)c2ccccc2)c1 (centres unmarked) [KEE, ketoprofen ethyl ester]",,,,,,,,,,,,,,,
,900 ± 13,460 ± 13,12000 ± 850,15500 ± 930,"COc1cccc2c1C(=O)c1c(O)c3c(c(O)c1C2=O)C[C@@](O)(C(=O)CO)C[C@@H]3O[C@H]1C[C@H](N)[C@H](O)[C@H](C)O1 [DOX, doxorubicin]",0.55 ± 0.028,3.21 ± 0.04,0.58 ± 0.03,5.47 ± 0.12,5440 ± 1500,1300 ± 60,0.54 ± 0.01,8.10 ± 0.15,1380 ± 30,0.55 ± 0.028,4.08 ± 0.32,0.45 ± 0.019,7.51 ± 0.31,0.47 ± 0.017,2.35 ± 0.08
